13 compounds from the SangsterLogP compilation can be followed below.

In turn, `COc1ccccc1N1CCNCC1` yielded a logP of 1.09. For `c1csc(N2CCNCC2)n1` the value was 0.61; for `c1cnc(N2CCNCC2)nc1`, 0.49. Consider `Clc1cccc(N2CCNCC2)c1`, for which the logP was 2.11. For `FC(F)(F)c1cccc(N2CCNCC2)c1` the value was 2.43; for `Cc1ccccc1N1CCNCC1`, 2.14. For the compound `Fc1cnc(N2CCNCC2)nc1`, the logP stood at 0.97. `Fc1ccc(N2CCNCC2)cc1` came in with a logP of 1.28. `Clc1ccc(N2CCNCC2)cc1`: the logP was determined as 2.01.

`c1ccc2c(N3CCNCC3)nsc2c1` came in with a logP of 2.14. As for `Clc1ccccc1N1CCNCC1`, the logP was determined as 2.13.

`c1ccc2nc(N3CCNCC3)ccc2c1` returned a lipophilicity (logP) of 2.04. `c1ccc(N2CCNCC2)nc1` came in with a logP of 0.74.

The term logP denotes a log measure of how a compound divides between an organic and an aqueous phase.
